Experimental data taken from patent US20260248833A1, “PYRIMIDINE NUCLEOSIDE TREATMENTS” (The Children`s Medical Center Corporation, priority 2022, published 2026).
Entries after “also recorded” stand apart in the source; their conditions may differ.

Columns and labels:
[1] = cited from earlier work
[2] = system: pCHK1-S345 and pRPA32-S33; test: Immunoblot of replication stress signaling in super-telomerase cells; type: cell-based, human
[3] = system: TERC−/− 293T cells stably expressing dmDNK; test: Telomere DNA content blot in dmDNK expressing cells; type: cell-based, human; conditions: TERT and TERC transfected, nucleoside 24-30 hrs, versus eGFP control
Excerpt: Combining thymidine treatment with expression of a nucleoside kinase to improve efficiency of nucleoside uptake and thereby promote telomere lengthening. combining nucleoside treatment with the expression of TK1, or the deoxynucleoside kinase from Drosophila (dmDNK), either of which can be delivered via mRNA. See FIG. 29A-B. TERC-/- 293T cells stably expressing dmDNK or eGFP (control) were transfected with vectors to express […], then cultured in the indicated doses of nucleoside, followed by analysis of telomere DNA content via blotting and detection with a complementary oligonucleotide probe.

293T cells [4] = test: Cell cycle analysis by DAPI staining and flow cytometry, 293T cells; type: cell-based, human
Method: (§1) Cell cycle analysis by DNA content staining and flow cytometry: Cells were prepared either for flow-FISH staining as described (for experiments in FIG. 5) or by ethanol fixation (for data in FIG. 6, 27), followed by rehydration and counterstaining using DAPI (BD Biosciences) and analysis on an LSR-II or Fortessa analyzer (BD Biosciences) using BD FACSDiva 8.0.2. Cells were gated on FSC/SSC as described in FIG. 6d using FlowJo V10.7.1.

293T cells [5] = test: Polar metabolite profiling by LC-MS of dT treated 293T cells; type: cell-based, human
Method: Liquid Chromatography-Mass Spectrometry: extraction of and quantification of polar metabolites was performed as described using HPLC grade methanol (Fisher Scientific). If a given species was detected in multiple ion modes, the mode with the highest average signal in the untreated cells was used for analysis.

[6] = system: super-telomerase cells (TERC-null 293T cells transfected with TERT and TERC); test: TRF Southern blot telomere synthesis in super-telomerase cells; type: cell-based, human
Method: (§2) Terminal Restriction Fragment Length Analysis: genomic DNA was isolated from cells using the Invitrogen Purelink Genomic DNA mini kit (Invitrogen). 1-3 μg of gDNA was digested with RsaI and HinfI for 2-3 hrs at 37° C. and loaded onto a 0.6% agarose gel followed by Southern blotting using the Telotaggg Telomere Length Assay Kit (Roche). Quantification was performed using the WALTER webtool.
dT supplementation increases levels of dTTP and can reduce dCTP levels, leading to replication stress at high doses. Because replication stress signaling has been implicated in telomerase biology we asked whether replication stress induction explained the telomere length increases seen with dT treatment. We first tested whether telomere elongation is a universal response to replication stress-inducing compounds. […] However, cytotoxicity limited our ability to apply higher doses of replication stress-inducing compounds for time periods long enough to study telomere length changes. […] Using this system, we next asked how high-dose treatment with replication stress-inducing agents such as aphidicolin, hydroxyurea, and the TYMS inhibitor 5FU influence telomere synthesis compared to dT.

[7] = system: iPSCs from a healthy donor; test: TRF Southern blot telomere length, wildtype iPSCs; type: cell-based, human
Method: (§3) Cell culture: K562 cells (ATCC) were grown in RPMI1 1640 (Gibco) media supplemented with 10% fetal bovine serum. 293T cells (ATCC) were grown in DMEM (Gibco) supplemented with 10% fetal bovine serum, and were subcultured using 0.05% trypsin (Gibco). iPSCs were derived, characterized and cultured as previously described. iPSCs were grown in Essential 8 Media (Life Technologies) supplemented with the ROCK inhibitor Y271632 (Stem Cell Technologies) at 10 μM on plates coated with hES qualitied Matrigel matrix (Corning) and were subcultured using Accutase (Stem Cell Technologies).
as §2

wild-type iPSCs = test: Cell cycle analysis by DAPI staining and flow cytometry, iPSCs; type: cell-based, human; conditions: 24 hours
Method: as §1

293T cells [8] = test: Cell growth curves by hemocytometry, 293T cells; type: cell-based
Method: Quantification of cell growth was performed using hemocytometry with trypan blue staining to identify dead cells. For growth curves, 50k cells were plated per 12 well or 100k cells were plated per 6 well and cells were passaged when confluent, counted using a hemocytometer, and replated at equal numbers in fresh media.

K562 cells = test: Terminal restriction fragment (TRF) Southern blot telomere length, K562 cells; type: cell-based, human
Method: as §3, §2

human HSPCs = test: TRF telomere length of HSPCs; type: cell-based; conditions: HSPCs treated with dT for 7 days (FIG. 19)
Method: as §2

[9] = increasing doses of dT (FIG. 8a)

SMILES: Cc1cn([C@H]2C[C@H](O)[C@@H](CO)O2)c(=O)[nH]c1=O [dT, 1-[(2R,4S,5R)-4-Hydroxy-5-(hydroxymethyl)oxolan-2-yl]-5-methylpyrimidine-2,4 (1H,3H)-dione]
- aqueous solubility [1]: about 50 mg/ml
- replication stress signaling at the telomere-active dose ([2]; 40 μM dT): far below doses that induce replication stress signaling
- replication stress signaling ([2]; highest doses, 30 hours): induced similar levels of replication stress signaling
- telomere lengthening with expression of a nucleoside kinase (dmDNK) [3]: Enhanced telomere lengthening from the combination of expressing a nucleoside kinase with dT treatment
- dT doses with no detectable changes in cell cycle distribution (293T cells [4]): below 100 μM
- dTDP levels (293T cells [5]; 100 μM dT): fourfold
- levels of dTTP compared to vehicle (293T cells [5]; 100 μM dT): four-fold
- levels of dTMP, dTDP and dTTP (293T cells [5]; 100 μM dT for 24 hours): increases levels of dTMP, dTDP and dTTP
- dose at which increased telomere repeat synthesis could be observed ([6]; 30 hours): 40 µM
- rescue of telomere synthesis following 5FU treatment ([6]; dT supplementation with maximal doses of 5FU): restored telomere elongation despite maximal doses of 5FU; also recorded: fully rescued telomere synthesis
- maximal rate of telomere elongation ([6]; high-dose dT treatment, 30 hours, baseline 103 bp/hour): 625 bp/hour
- telomere repeat synthesis / telomere elongation by telomerase ([6]; treatment for 30 hours): robustly increased telomere repeat synthesis in a dose-responsive and telomerase-dependent manner
- telomere elongation ([7]; 100 μM dT, three weeks): ~ 2000 bp
- telomere elongation ([7]; dT for three weeks): significantly elongated telomeres
- dT doses with minimal effects on cell cycle progression (wild-type iPSCs): ≤ 50 µM
- cellular growth (293T cells [8]; 20 or 40 μM dT, 34 days): undetectable changes in cellular growth curves; also recorded: undetectable impact on cellular growth
- dose at which inhibition of growth was detected (293T cells [8]; [9]): ≥ 50 µM
- doses at which growth was minimally impacted (293T cells [8]; [9]): below 100 μM
- thymidine doses driving robust telomere length increases (K562 cells; 34 days of culture in low dose thymidine (FIGS. 2L and 2N)): ≥ 5 µM
- doses leading to robust telomere elongation in less than 10 days (K562 cells; K562 cells): ≥ 50 µM
- telomere length (K562 cells; K562 cells, 100 μM of the indicated deoxynucleoside(s) for 8 days): rapidly and robustly increases telomere length; also recorded: promoted telomere lengthening, as did dT alone
- telomere lengthening following dT with dNTPase-deficient SAMHD1 H215A or K312A variants (K562 cells; K562 cells, 10 days): could not restrict telomere lengthening following dT supplementation
- telomere lengthening following dT treatment with overexpression of wild-type SAMHD1 (K562 cells; K562 cells, 10 days, compared to EGFP control): reduced telomere lengthening following dT treatment
- lowest dT dose giving robust telomere lengthening without growth change (K562 cells; K562 cells, 34 days): ≥ 5 µM
- telomere lengthening upon dT treatment in TK1-edited cells (K562 cells; K562 cells, CRISPR/Cas9 TK1 edited, 10 days): complete abrogation of the telomere lengthening
- telomere lengthening upon dT treatment in TK2-edited cells (K562 cells; K562 cells, CRISPR/Cas9 TK2 edited, 10 days): no difference in telomere length increases compared to control AAVS1-targeted cells
- telomere elongation, increase of base pairs (bp) per day (K562 cells; K562 cells, at 100 μM dT): 204 bp per day
- telomere elongation, increase of base pairs (bp) per day (K562 cells; K562 cells, at […] dT): 132 bp per day
- telomere lengthening in TYMS-knockout cells (K562 cells; K562 cells, baseline 16 μM dT, plus 100 μM additional dT or 1 mM dU, 10 days): responsive to dT to promote telomere lengthening
- telomere length (human HSPCs): lengthens telomeres in human HSPCs after just 7 days
